Source: US12559789B2, “Method of targeting patient-specific oncogenes in extrachromosomal DNA to treat glioblastoma” (The Jackson Laboratory, priority 2017, dated 2026)
Entries after “also recorded” stand apart in the source; their conditions may differ.

Key:
Format in all cases: in vivo, mouse
[1] = tested on: HF3077 PDX; assay: Survival of orthotopic HF3077 PDX mice treated with capmatinib (Kaplan-Meier, log-rank); conditions: single agent, 30 mg/kg daily oral doses, log-rank test, significance P<0.05
Text: Orthotopic xenografts: Following IACUC guidelines in an institutionally approved animal use protocol, the inventors implanted the GBM neurosphere cell suspensions into 8-week old female nude mice (NCRNU, Taconic Farms) (i.e. immunodeficient mice) using the protocol described in Berezovsky, A. D. et al. SOX2 promotes malignancy in glioblastoma by regulating plasticity and astrocytic differentiation, Neoplasia 16, 193-206 e25 (2014), which is incorporated herein by reference. It should be noted that other “nude” or “immunodeficient” mice may be used in the present invention, as would be apparent to those skilled in the art. Thus, the present invention is not limited to the specific nude mice used in this experiment. […] Animals were monitored daily by an observer blinded to the group allocation and sacrificed upon first signs of neurological deficit or weight loss greater than 20%. […]
The inventors treated HF3077 PDXs with capmatinib (purchased from Matrix Scientific Products (Columbia, SC)) suspensions in 0.5% methylcellulose/0.1% Tween 80 were prepared every week and administered by oral gavage using a 20 g×1.5″ gavage needle (Cadence) at a dose of 30 mg/kg once a day (5 days/week) until the end of the study. […] Animals were monitored daily and sacrificed upon first signs of neurological deficit or weight loss greater than 20%. […]

[2] = tested on: HF3035 PDX; assay: Survival of HF3035 PDX mice treated with capmatinib (Kaplan-Meier, log-rank); conditions: single agent, 30 mg/kg daily oral doses, log-rank test
[3] = LC-MS/MS quantitation of capmatinib in plasma and tumor tissue of HF3077 PDX (brain penetrance); conditions: 2 h after the last 30 mg/kg oral dose
Protocol: To evaluate brain penetrance of capmatinib, the inventors drew blood samples two hours after administration of the last capmatinib 30 mg/kg dose, sacrificed the animals, harvested brains, and froze 2 mm coronal sections in OCT. The inventors dissected tumor tissue from the frozen blocks. The inventors determined capmatinib concentration in homogenized tumor tissue and plasma for three treated animals and one control was quantified by LC-MS/MS. For mouse plasma sample analysis, the inventors precipitated 25 μL of each sample with 200 μL of acetonitrile. This suspension was vortexed for 30 min and centrifuged at 4k rpm for 15 min, after which 100 μL of the extract was aliquoted and mixed with 200 μL of acetonitrile/water (1/2, v/v) prior to LC-MS/MS analysis. The extracted plasma samples were analyzed on a Waters Acquity UPLC system coupled with a Waters Xevo TQ-S triple quadrupole mass spectrometer operated at positive mode. The capillary voltage was set to 0.5 kv and collision energy to 32 eV. […] The mobile phase A was 0.1% acetic acid/water and B was 0.1% acetic acid/acetonitrile. The LC gradient was 10% B (0-0.3 min), 10-95% B (0.3-1.3 min), 95% B (1.3-1.7 min), 10% B (1.7-2.0 min) and the flow rate was 0.5 mL/min. The column temperature was 40° C. The injection volume was 2 μL. […] The tissue homogenates were analyzed by using the same method as described above.

CNC(=O)c1ccc(-c2cnc3ncc(Cc4ccc5ncccc5c4)n3n2)cc1F [capmatinib, Capmatinib]
survival of HF3077 PDX [1]: significant survival benefit; also recorded: increases survival of HF3077 PDX
survival of HF3035 PDX [2]: did not increase survival
concentration of drug in the brain tumor [3]: relatively low concentration
